Source: ChEMBL document CHEMBL3885861, “Open TG-GATES”

Species on record: Rattus norvegicus
Experiment: Open TG-GATES - Regimen: Single
Assay type: toxicity, organism-based, Sprague-Dawley
Parameters: regimen Single, gender Male, age 6 weeks
Details: in vivo, po, 25 mg/kg, route gavage, dose level Middle; for APTT / Bas / Eos / Fbg / Hb / Ht / Lym / MCH / MCHC / MCV / Mono / Neu / PT / Plat / RBC / Ret / WBC: tissue Blood; for KIDNEY_L / KIDNEY_R / KIDNEY_TOTAL: tissue Kidney; for LIVER: tissue Liver; for A/G / ALP / ALT / AST / BUN / CRE / Ca / Cl / DBIL / GLC / IP / K / LDH / Na / PL / RALB / TBIL / TC / TG / TP / gamma-GTP: tissue Plasma

NC1=NC(=O)C(c2ccccc2)O1 (configuration not stated) [PEMOLINE]
TERMINAL_BW (3 h): 210.1 g | APTT (3 h): 15.6 s | Bas (3 h): 0% | Eos (3 h): 1% | Fbg (3 h): 280.4 mg/dL | Hb (3 h): 13.5 g/dL | Ht (3 h): 39.8% | Lym (3 h): 74.2% | MCH (3 h): 21.3 pg | MCHC (3 h): 33.8% | MCV (3 h): 62.9 fL | Mono (3 h): 3.8% | Neu (3 h): 20.6% | PT (3 h): 13.1 s | Plat (3 h): 115 x10_4/uL | RBC (3 h): 633.2 x10_4/ul | Ret (3 h): 8.8% | WBC (3 h): 86.4 x10_2/uL | KIDNEY_L (3 h): 0.9 g | KIDNEY_R (3 h): 0.9 g | KIDNEY_TOTAL (3 h): 1.8 g | LIVER (3 h): 9.3 g | A/G (3 h): 1 | ALP (3 h): 1568.2 IU/L | ALT (3 h): 42.6 IU/L | AST (3 h): 86 IU/L | BUN (3 h): 8.2 mg/dL | CRE (3 h): 0.2 mg/dL | Ca (3 h): 10.5 mg/dL | Cl (3 h): 106.4 meq/L | DBIL (3 h): 0.01 mg/dL | GLC (3 h): 185.2 mg/dL | IP (3 h): 8.5 mg/dL | K (3 h): 3.8 meq/L | LDH (3 h): 104 IU/L | Na (3 h): 140.4 meq/L | PL (3 h): 122.4 mg/dL | RALB (3 h): 2.7 g/dL | TBIL (3 h): 0.044 mg/dL | TC (3 h): 72.4 mg/dL | TG (3 h): 39.6 mg/dL | TP (3 h): 5.4 g/dL | gamma-GTP (3 h): 1.4 IU/L | TERMINAL_BW (6 h): 209.6 g | APTT (6 h): 17.7 s | Bas (6 h): 0.2% | Eos (6 h): 1% | Fbg (6 h): 316.4 mg/dL | Hb (6 h): 13.6 g/dL | Ht (6 h): 40% | Lym (6 h): 72.2% | MCH (6 h): 21.7 pg | MCHC (6 h): 34% | MCV (6 h): 63.7 fL | Mono (6 h): 2.6% | Neu (6 h): 23.6% | PT (6 h): 13.4 s | Plat (6 h): 122.6 x10_4/uL | RBC (6 h): 629.6 x10_4/ul | Ret (6 h): 9.8% | WBC (6 h): 101.7 x10_2/uL | KIDNEY_L (6 h): 0.9 g | KIDNEY_R (6 h): 0.9 g | KIDNEY_TOTAL (6 h): 1.8 g | LIVER (6 h): 8.2 g | A/G (6 h): 1 | ALP (6 h): 1568 IU/L | ALT (6 h): 44 IU/L | AST (6 h): 81.8 IU/L | BUN (6 h): 7 mg/dL | CRE (6 h): 0.2 mg/dL | Ca (6 h): 10.4 mg/dL | Cl (6 h): 108.2 meq/L | DBIL (6 h): 0.01 mg/dL | GLC (6 h): 179.2 mg/dL | IP (6 h): 9.4 mg/dL | K (6 h): 3.5 meq/L | LDH (6 h): 67.6 IU/L | Na (6 h): 140.8 meq/L | PL (6 h): 121.4 mg/dL | RALB (6 h): 2.8 g/dL | TBIL (6 h): 0.052 mg/dL | TC (6 h): 77 mg/dL | TG (6 h): 15.2 mg/dL | TP (6 h): 5.5 g/dL | gamma-GTP (6 h): 1 IU/L | TERMINAL_BW (9 h): 212 g | APTT (9 h): 16 s | Bas (9 h): 0% | Eos (9 h): 0.6% | Fbg (9 h): 316.2 mg/dL | Hb (9 h): 13.7 g/dL | Ht (9 h): 40.4% | Lym (9 h): 75.2% | MCH (9 h): 21.7 pg | MCHC (9 h): 33.8% | MCV (9 h): 64.2 fL | Mono (9 h): 2.4% | Neu (9 h): 21.2% | PT (9 h): 13.4 s | Plat (9 h): 112 x10_4/uL | RBC (9 h): 630.8 x10_4/ul | Ret (9 h): 9.7% | WBC (9 h): 91.7 x10_2/uL | KIDNEY_L (9 h): 0.9 g | KIDNEY_R (9 h): 0.9 g | KIDNEY_TOTAL (9 h): 1.7 g | LIVER (9 h): 8.1 g | A/G (9 h): 1 | ALP (9 h): 1640.8 IU/L | ALT (9 h): 40.2 IU/L | AST (9 h): 83.4 IU/L | BUN (9 h): 8.6 mg/dL | CRE (9 h): 0.2 mg/dL | Ca (9 h): 10.6 mg/dL | Cl (9 h): 106.4 meq/L | DBIL (9 h): 0.014 mg/dL | GLC (9 h): 191.6 mg/dL | IP (9 h): 9.7 mg/dL | K (9 h): 3.8 meq/L | LDH (9 h): 94.4 IU/L | Na (9 h): 141.4 meq/L | PL (9 h): 137 mg/dL | RALB (9 h): 2.8 g/dL | TBIL (9 h): 0.044 mg/dL | TC (9 h): 86.8 mg/dL | TG (9 h): 27.2 mg/dL | TP (9 h): 5.6 g/dL | gamma-GTP (9 h): 1.4 IU/L | TERMINAL_BW (24 h): 209.6 g | APTT (24 h): 16.3 s | Bas (24 h): 0% | Eos (24 h): 1% | Fbg (24 h): 290 mg/dL | Hb (24 h): 12.9 g/dL | Ht (24 h): 37.6% | Lym (24 h): 80.4% | MCH (24 h): 21.9 pg | MCHC (24 h): 34.3% | MCV (24 h): 63.7 fL | Mono (24 h): 3.6% | Neu (24 h): 14.4% | PT (24 h): 13 s | Plat (24 h): 107.2 x10_4/uL | RBC (24 h): 589 x10_4/ul | Ret (24 h): 8.2% | WBC (24 h): 73.1 x10_2/uL | KIDNEY_L (24 h): 0.9 g | KIDNEY_R (24 h): 0.9 g | KIDNEY_TOTAL (24 h): 1.8 g | LIVER (24 h): 9.3 g | A/G (24 h): 1 | ALP (24 h): 1533.8 IU/L | ALT (24 h): 46.6 IU/L | AST (24 h): 87.8 IU/L | BUN (24 h): 15.4 mg/dL | CRE (24 h): 0.2 mg/dL | Ca (24 h): 10.6 mg/dL | Cl (24 h): 104.4 meq/L | DBIL (24 h): 0.014 mg/dL | GLC (24 h): 176.8 mg/dL | IP (24 h): 8.8 mg/dL | K (24 h): 4.2 meq/L | LDH (24 h): 71.6 IU/L | Na (24 h): 140.6 meq/L | PL (24 h): 128.2 mg/dL | RALB (24 h): 2.7 g/dL | TBIL (24 h): 0.032 mg/dL | TC (24 h): 78 mg/dL | TG (24 h): 50 mg/dL | TP (24 h): 5.4 g/dL | gamma-GTP (24 h): 1 IU/L
